“Also recorded” adds a separate entry of the source.

For one assay, the system named is TNF-α. Nature of the assay: Semi-quantitative PCR liver, TNF-α. The class given is in vivo. To be noted: HF diet mice + AC261066 or CD1530. From the text:
(§1) WT male C57/BL6 male mice were maintained on either a standard laboratory chow-fed diet (CFD) with 13% kcal fat, (diet #5053, Lab Diet, Inc, St. Louis, Mo.) or a high fat, western style diet (HFD) with 60% kcals from fat, (diet #58126, Lab Diet, Inc., St. Louis, Mo.) for 4 months. One month after the start of the high fat diet treatment, the high fat diet group was further split into 2 groups for 3 months: i) high fat diet and the drinking water containing 1% DMSO; ii) high fat diet and the drinking water containing 1.5 mg/100 ml AC261066, a specific RARβ agonist. Then mice were sacrificed by cervical dislocation. Blood and various tissue samples were harvested.
(§2) Total RNA was extracted from mouse tissues using TRIzol reagent (Life technologies) and (1 μg) was used to synthesize cDNA. cDNA synthesis was performed at 42° C. for 1 h in a final volume of 20 μl using qScript (Quanta, MD). Semi-quantitative PCR were performed Taq DNA polymerase (Invitrogen, CA). Three step PCR was run as follows: 94° C. for 30 s, 58-64° C. for 45 s for primer annealing and 72° C. for 1 min for primer extension. The number of cycles for each primer pair for amplification in the linear range was determined experimentally. PCR products were resolved 2% agarose gels and visualized by staining with ehtidium bromide. Primers for gene expression used were as follows: […]

The test system of another assay is α-SMA. Nature of the assay: α-SMA immunofluorescence of liver sections (hepatic stellate cell activation). The format is in vivo. To be noted: HF diet mice + AC261066 or CD1530; vs HF-vehicle.
Description: as §1
Staining. Fresh mouse liver samples were embedded in optimal cutting temperature (OCT) medium and immediately frozen to −70 centigrade. Cryosections were then fixed in 4% formaldehyde for 1 hr at room temp. Slides were then rinsed three times in deionized water (dH2O) for 30 s, followed by treatment with 0.5% Triton X-100 in PBS for 5 min. Sections were then washed three times with PBS for 5 min. Samples were with incubated 2% bovine serum albumin (BSA) for 30 min at room temperature to block for unspecific antibody binding. Following blocking, sections were washed three times in PBS and incubated with mouse monoclonal antibody against α-SMA (1:500) (Dako, Inc) for 24 h at 4° C. After 24 h sections were washed three times in PB and incubated with Alexa-Flour-488 anti-mouse secondary anti-body (1:500) (Invitrogen, Inc) for 30 min at room temperature. Sections were then washed three times in PBS and incubated with working strength oil-red O solution for 30 minutes at room temperature. Sections were then rinsed for 30 minutes under running tap water and cover-slipped with Vectashield hard mount plus DAPI (Vector Labs, Inc).

The test system of another assay is SREBP1-c. The experiment in a line: Semi-quantitative PCR liver, SREBP1-c. The class given is in vivo. To be noted: HF diet mice + AC261066 or CD1530.
Description: as §1, §2

The test system of assay [1] is hepatocyte lipid accumulation. The experiment in a line: Hematoxylin and eosin staining of liver sections (hepatic steatosis). The conditions noted are these: HF diet mice 4 months + AC261066 or CD1530; vs HF-vehicle. The class given is in vivo.
Description: as §1
At sacrifice, fresh mouse liver samples were fixed in 4% formaldehyde solution for 24 hr and embedded in paraffin blocks. Liver paraffin sections were cut 5 microns thick and mounted on glass slides and stained with hematoxylin and eosin (H and E) using standard protocols.

For the next assay, the system named is renal lipid accumulation. Nature of the assay: Hematoxylin and eosin staining of kidney sections. The format is in vivo. To be noted: HF diet mice + AC261066 or CD1530; vs HF-vehicle.
Description: as §1
At sacrifice, fresh mouse liver samples were fixed in 4% formaldehyde solution for 24 hr and embedded in paraffin blocks. Kidney paraffin sections were cut 5 microns thick and mounted on glass slides and stained with hematoxylin and eosin (H and E) using standard protocols.

The subject of assay [2] is retinyl palmitate and retinol. Nature of the assay: HPLC analysis of liver retinoids. The format is in vivo, mice.
Description: as §1
The frozen liver tissue samples (˜100 mg) were homogenized in 500 μl cold phosphate-buffered saline (PBS). In addition, 100 μl serum was diluted in cold PBS to total volume of 500 μl. Retinyl acetate was added to each sample before the retinoid extraction for the calculation of extraction efficiency. The retinoids were extracted into 350 μl of organic solution (acetonitrile/butanol, 50:50, v/v) in the dark. The high performance liquid chromatography (HPLC) was performed using a Waters Millennium system (Waters). Each sample (100 μl of the 350 μl) was loaded onto an analytical 5-μm reverse phase C18 column (Vydac, Hesperia, Calif.) and eluted at a flow rate of 1.5 ml/min. Two mobile phase gradient systems were used. Retinoids were identified by HPLC based on two criteria: an exact match of the retention times of unknown peaks with those of authentic retinoid standards and identical UV light spectra (220-400 nm) of unknowns against spectra from authentic retinoid standards during HPLC by the use of a photodiode array detector. The amounts of retinoids were calculated from the areas under the peaks detected at the wave-length of 325 nm. The levels of retinol and retinyl esters were normalized to the tissue weight.

A further assay relates to hepatic lipids. Nature of the assay: Oil red O staining of liver sections. The format is in vivo. To be noted: HF diet mice + AC261066 or CD1530; vs HF-vehicle.
Description: as §1
Staining. Fresh mouse liver samples were embedded in optimal cutting temperature (OCT) medium and immediately frozen to −70 centigrade. Cryosections were then fixed in 4% formaldehyde for 1 hr at room temp. Slides were then rinsed three times in deionized water (dH2O) for 30 s, followed by treatment with 0.5% Triton X-100 in PBS for 5 min. Sections were then washed three times with PBS for 5 min. Samples were with incubated 2% bovine serum albumin (BSA) for 30 min at room temperature to block for unspecific antibody binding. Following blocking, sections were washed three times in PBS and incubated with mouse monoclonal antibody against α-SMA (1:500) (Dako, Inc) for 24 h at 4° C. […]

The subject of a further assay is MCP-1. The experiment in a line: Semi-quantitative PCR liver, MCP-1. The format is in vivo. To be noted: HF diet mice + AC261066 or CD1530.
Description: as §1, §2

A further assay concerns RARβ. Nature of the assay: RT-PCR of RARβ in RA-treated ES cells. The class given is cell-based, mouse. The conditions noted are these: WT ES cells, presence of RA vs untreated. As for the experimental part:
(§3) Mouse J1 wild-type FS cells were cultured as described previously (27). C57BL/6 RARβ heterozygous mice were provided by Dr. Pierre Chambon (Strasbourg-Cedex, France) (26). Homozygous RARβ-null mice were obtained following mating of RARβ heterozygous mice. Blastocysts were harvested on day E3.5 and individually cultured on ES cell medium as previously described (28). Various markers for endodermal (day 5), pancreatic progenitor (day 11), endocrine progenitor (day 14) and endocrine (day 17) differentiation were analyzed by semi-quantitative RT-PCR in J1 wild-type and RARβ KO ESCs. Primers were designed around introns whenever possible. Total RNA extraction, semi-quantitative and quantitative PCR reactions were performed as previously described (18). Amplified PCR products were resolved on 1.5% agarose gels and visualized by staining with ethidium bromide. PCR bands were sequenced for verification of the correct amplicon. Quantitation of semi-quantitative gels was performed using ImageJ software (National Institutes of Health) from three experimental biological repeats.

The test system of the next assay is Cyp26a1. Nature of the assay: RT-PCR of Cyp26a1 in RA-treated WT and RARβ KO ES cells. The class given is cell-based, mouse. As for the experimental part:
as §3

The mark [3] stands for this setting: HF diet mice + AC261066 or CD1530 vs controls.

Consider `O=C(O)c1ccc(-c2ccc3cc(O)c(C45CC6CC(CC(C6)C4)C5)cc3c2)cc1` [CD1530], for which, in the assay on TNF-α, the “mRNA levels of TNF-α in liver” value is recorded as “markedly elevated”. The “α-SMA positive staining in liver (HSC activation)” value in the assay with α-SMA was “no evidence decreased lipid accumulation or α-SMA expression intensity or patterns”. The “mRNA levels of SREBP1-c in liver” value in the assay with SREBP1-c was “markedly higher”. Moreover, the “hepatocyte lipid infiltration / hepatic steatosis (H and E)” value in assay [1] is listed as “no decrease in hepatic lipid accumulation”. For the same compound, in the assay on renal lipid accumulation, the “renal lipid infiltration/accumulation (H and E)” value was “no decrease in renal lipid accumulation”. For the same compound, in assay [2] (setting [3]), the “liver retinol compared to controls” value is recorded as “significantly lowered” and the “liver retinyl palmitate compared to controls” value is recorded as “significantly lowered”. The “retinyl palmitate levels in the liver lower than HF-vehicle treated mice” value in [2] (HF diet mice + CD1530) is on record as approximately 48%. In addition, in the assay on hepatic lipids, the “hepatic lipid accumulation (oil red O)” value is on record as “not observed; also recorded: no evidence decreased lipid accumulation”. Further, the “mRNA levels of MCP-1 in liver” value in the assay on MCP-1 was “markedly elevated”.

On to `CC1=C(/C=C/C(C)=C/C=C/C(C)=C/C(=O)O)C(C)(C)CCC1` [RA, all trans-retinoic acid], for which the RARβ transcript signal entry with RARβ is recorded as “stronger RARβ signal”. Also, the Cyp26a1 expression result in the assay with Cyp26a1 is “RA-dependent Cyp26a1 expression was observed in both WT and RARβ KO ES cells”.

The values above are taken from US11207277B2, “Methods of treating diseases associated with high-fat diet and vitamin a deficiency using retinoic acid receptor agonists” (Cornell University, priority 2013, dated 2021).
